From patent US7053160B1, “Metallocene monohalogenides” (Basell Polyolefine GmbH, priority 1998, dated 2006)

experiment: Solubility comparison in toluene at room temperature; format: physicochemical; details: about 50 mg of solid dissolved

| Compound | solubility |
| --- | --- |
| Dimethylsilanediylbis(2-methylindenyl)zirconium monochloride mono(2,4-di-tert-butylphenoxide) [compound 2] | > 15 mM |
| CC1=Cc2c(ccc3ccccc23)[C]12[Si](C)(C)[C]1(C(C)=Cc3c1ccc1ccccc31)[Zr]2([Cl])[O]c1ccc(C(C)(C)C)cc1C(C)(C)C (stereo not shown) [compound 1, Dimethylsilanediylbis(2-methyl-4,5-benzoindenyl)zirconium monochloride mono(2,4-di-tert-butylphenoxide)] | > 13 mM |
| CC1=Cc2c(ccc3ccccc23)[C]12[Si](C)(C)[C]1(C(C)=Cc3c1ccc1ccccc31)[Zr]2([Cl])[Cl] (stereo not shown) [dimethylsilanediylbis(2-methyl-4,5-benzoindenyl)zirconium dichloride] | about 0.36 mmol/l |
| Cc1cc2ccccc2[c-]1[Si](C)(C)[c-]1c(C)cc2ccccc21.[Cl-].[Cl-].[Zr+4] (stereo not shown) [dimethylsilanediylbis(2-methylindenyl)zirconium dichloride] | about 2.1 mmol/l |
